Four compounds from the NIST ThermoML archive (doi:10.1016/j.jct.2007.09.007) can be followed below.

For this series the following is noted: 101.33 kPa, Liquid.

SMILES strings stand for the structures. Numbers after ± are expanded uncertainties.

For the compound `C1COCCO1` [1,4-dioxane], the mass density is, setting by setting: (288.15 K) 1038.78 ± 0.24 kg/m3; (293.15 K) 1033.16 ± 0.23 kg/m3; (298.15 K) 1027.51 ± 0.22 kg/m3; (303.15 K) 1021.84 ± 0.21 kg/m3.
The like results for `CC#N` [acetonitrile] were, in that order, 787.38 ± 0.23 kg/m3, 782.01 ± 0.24 kg/m3, 776.62 ± 0.24 kg/m3 and 771.19 ± 0.25 kg/m3.
The corresponding values for `CC(C)OC(C)C` [diisopropyl ether] are 728.82 ± 0.94 kg/m3, 723.67 ± 0.95 kg/m3, 718.46 ± 0.96 kg/m3 and 713.21 ± 0.97 kg/m3.
The corresponding values for `C1CCOC1` [tetrahydrofuran] are 892.86 ± 0.33 kg/m3, 887.52 ± 0.34 kg/m3, 882.04 ± 0.35 kg/m3 and 876.54 ± 0.36 kg/m3.
